Converted amounts (≈) assume the structure as drawn. Where two headings read alike, the source gives them in different places.

In general, IC50 refers to the midpoint of a concentration-inhibition curve.

The subject of assay [1] is Enterococcus faecalis (ATCC # 29212). Put plainly: Broth microdilution MIC, E. faecalis. The settings on record: for MIC: Enterococcus faecalis, ATCC29212. Format: cell-based. Here is the method: (§1) A broth microdilution assay is used to assess the antimicrobial activity of the compounds. […] Microorganisms tested include Staphylococcus aureus (ATCC # 29213), Enterococcus faecalis (ATCC # 29212), Pseudomonas aeruginosa (ATCC # 27853), and Escherichia coli (ATCC # 25922). The assay is performed in two growth media, Mueller Hinton Broth and Trypticase Soy Broth. A blood (Tsoy/5% sheep blood) agar plate is inoculated from frozen stocks maintained in T soy broth containing 10% glycerol and incubated overnight at 37° C. Colonies are suspended in sterile broth so that the turbidity matches the turbidity of a 0.5 McFarland standard. The inoculum is diluted 1:10 in sterile broth (Mueller Hinton or Trypticase soy) and 195 ul is dispensed per well of a 96-well plate. The compounds to be tested, dissolved in DMSO, are added to the wells in 5 ul volume at the following concentrations: 25, 12.5, 6.25, 3.125, 1.56 and 0.78 ug/ml in duplicate. Additional concentrations are tested if required. 5 ul of DMSO added to duplicate wells are the vehicle control. Serial dilutions of positive control compounds, vancomycin (E. faecalis and S. aureus) and tobramycin (E. coli and P. aeruginosa), are included in each run. After 24 hours of incubation at 37° C., plates are read at OD600 on a Molecular Devices SpectraMax Plus Spectrophotometer. Average OD600 values are computed using SOFTmax Pro Software (Molecular Devices) and MIC values are determined by linear regression analysis using Prism version 3.02 (Graph Pad Software, San Diego). The MIC is defined as the concentration of compound required to produce an OD600 reading equivalent to 10% of the vehicle control reading.
In general terms: Dilution methods test growth across graded concentrations, often in twofold steps.

The subject of assay [2] is Escherichia coli (ATCC # 25922). Put plainly: Broth microdilution MIC, E. coli. The conditions noted are these: for Ecoli/MH (MIC): Mueller Hinton Broth; for Ecoli/Tsoy (MIC): Trypticase Soy Broth. It is filed as cell-based. Here is the method:
as §1

The next assay in a line: Weight loss, DIO. It is filed as in vivo. The settings on record: 20 mg/kg.
Assay [3] relates to Pseudomonas aeruginosa (ATCC # 27853). Put plainly: Broth microdilution MIC, P. aeruginosa. Format: cell-based. The conditions noted are these: for MIC: Pseudomonas aeruginosa, ATCC27853. Here is the method: as §1
The nature of a further assay: Weight loss screen. Format: in vivo, Balb/C mice. The conditions noted are these: 60 mg/kg intraperitoneally. On the procedure:
Balb/C mice (Jackson Labs) are utilized for the initial weight loss screening. Animals are housed in temperature and 12 hour day/night cycle rooms and fed mouse chow and water ad lib. Three mice are utilized for each compound tested with vehicle controls in triplicate per experiment. For the experiments, mice are housed separately for each compound tested three mice to a cage. Compounds are diluted in DMSO at 10 mg/ml and mice are injected intraperitoneally with 60 mg/kg in approximately 100 μl of DMSO or with vehicle alone. Mice are observed and weighed daily; average weights and standard errors are computed with Excel (Microsoft). The experiment continues until treated animals reach their pretreatment weights. Select compounds are tested in animals housed in metabolic cages. Dosing of animals are identical to the screening experiments with three animals to a single metabolic cage. Animal weights, water and food consumption, and urine and feces production are measured daily.

In assay [4] the test system is MCF-7 human breast cancer cells. Put plainly: XTT cytotoxicity assay (M). It is filed as cell-based. The settings on record: MCF7, MCF-7, 72 hours. Here is the method:
The XTT assay is a non-radioactive alternative for the [^51Cr] release cytotoxicity assay. XTT is a tetrazolium salt that is reduced to a formazan dye only by metabolically active, viable cells. The reduction of XTT is measured spectrophotometrically as OD490-OD650. To measure the cytotoxicity of specific compounds against cancer cells, 9×10^3 MCF-7 human breast cancer cells, obtained from the American Type Culture Collection are plated per well in 96 well plates in DMEM medium with 10% fetal bovine serum, insulin, penicillin, and streptomycin. Following overnight culture at 37° C. and 5% CO2, the compounds to be tested, dissolved in DMSO, are added to the wells in 1 μl volume at the following concentrations: 80, 40, 20, 10, 5, 2.5, 1.25, and 0.625 μg/ml in triplicate. Additional concentrations are tested if required. 1 μl of DMSO is added to triplicate wells are the vehicle control. C75 is run at 40, 20, […], and 5 μg/ml in triplicate as positive controls. After 72 hours of incubation, cells are incubated for 4 hours with the XTT reagent as per manufacturer's instructions (Cell Proliferation Kit II (XTT) Roche). Plates are read at OD490 and OD650 on a Molecular Devices SpectraMax Plus Spectrophotometer. Three wells containing the XTT reagent without cells serve as the plate blank. XTT data are reported as OD490-OD650. Averages and standard error of the mean are computed using SOFTmax Pro software (Molecular Dynamics). The IC50 for the compounds is defined as the concentration of drug leading to a 50% reduction in OD490-OD650 compared to controls. The OD490-OD650 are computed by the SOFTmax PRO software (Molecular Devices) for each compound concentration. IC50 is calculated by linear regression, plotting the FAS activity as percent of control versus drug concentrations. Linear regression, best-fit line, r^2, and 95% confidence intervals are determined using Prism Version 3.0 (Graph Pad Software).
A general note: Tetrazolium dyes change colour on reduction, which living cells bring about.

Assay [5] deals with Staphylococcus aureus (ATCC # 29213). As to the kind of experiment: Broth microdilution MIC, S. aureus. Format: cell-based. The settings on record: for MIC: Staphylococcus aureus, ATCC29213. On the procedure:
as §1

Setting [6] is: Trypticase Soy Broth, read-out: EF/Tsoy (MIC).
Where [7] appears, read: Trypticase Soy Broth, read-out: PSAE/Tsoy (MIC).
[8] abbreviates: Mueller Hinton Broth, read-out: SA/MH (MIC).
Setting [9] is: Trypticase Soy Broth, read-out: SA/Tsoy (MIC).
[10] abbreviates: Mueller Hinton Broth, read-out: PSAE/MH (MIC).

On to `CCCCCCCCC1OC(=O)C(=O)C1C(=O)OCC` (stereo not shown) [Compound 1], for which the MIC in assay [1] (setting [6]) turned out to be 42 mg/L (≈ 148 µM); in assay [3] (setting [7]), 103 mg/L (≈ 362 µM); in assay [5] (setting [8]), 32 mg/L (≈ 113 µM); in assay [5] (setting [9]) it was 25 mg/L (≈ 87.9 µM). Besides, in assay [1] (Mueller Hinton Broth), the “EF/MH (MIC)” value was “Neg”. Further, the “Ecoli/MH (MIC)” value in assay [2] was “Neg”. Besides, the “Ecoli/Tsoy (MIC)” value in assay [2] was “Neg”. For the same compound, the “Weight Loss DIO” value in the assay “Weight loss, DIO” (day 3) is reported as “DIO: 20 mg/kg: 4.6% (day 3)”. The “PSAE/MH (MIC)” value in assay [3] (Mueller Hinton Broth) is “Neg”. In addition, the “Weight Loss” value in the assay “Weight loss screen” (day 4) is given as 60 mg/kg: 9.7% (day 4). For the same compound, half-maximal inhibition in assay [4] (IC50) was put at 33.7 ± 14.6 mg/L (≈ 119 µM).

In assay [4], `CCCCCCCCC1OC(=O)C(OCc2ccccc2)=C1C(=O)OCC` (stereo not shown) [Compound 5] came in with an IC50 of more than 80 mg/L.

Take `CCCCC1OC(=O)C(O)=C1C(=O)OCC` (stereo not shown) [Compound 2]: the MIC in assay [1] (setting [6]) is 163 mg/L (≈ 714 µM); in assay [3] (setting [10]) it was 155 mg/L (≈ 679 µM); in assay [3] (setting [7]) it was 210 mg/L (≈ 920 µM). In addition, the “EF/MH (MIC)” value in assay [1] (Mueller Hinton Broth) was “Neg”. For the same compound, the “Ecoli/MH (MIC)” value in assay [2] is given as “Neg”. Besides, in assay [2], the “Ecoli/Tsoy (MIC)” value is recorded as “Neg”. Also, the “Weight Loss DIO” value in the assay “Weight loss, DIO” (day 2) is listed as “DIO: 20 mg/kg: 3.0% (day 2)”. Also, in “Weight loss screen” (day 4), the “Weight Loss” value is listed as 60 mg/kg: 12.3% (day 4). This compound returned an IC50 in assay [4] of more than 80 mg/L. For the same compound, the “SA/MH (MIC)” value in assay [5] (Mueller Hinton Broth) was “Neg”. In addition, the “SA/Tsoy (MIC)” value in assay [5] (Trypticase Soy Broth) is “Neg”.

Turning to `CCCCCCCCC1OC(=O)C(OCC(=O)OCC)=C1C(=O)OCC` (stereo not shown) [Compound 3], the MIC in assay [1] (Mueller Hinton Broth, read-out: EF/MH (MIC)) came to 100 mg/L (≈ 270 µM); in assay [1] (setting [6]), 135 mg/L (≈ 364 µM); in assay [3] (setting [10]), 173 mg/L (≈ 467 µM); in assay [3] (setting [7]), 186 mg/L (≈ 502 µM); in assay [5] (setting [8]), 150 mg/L (≈ 405 µM); in assay [5] (setting [9]), 146 mg/L (≈ 394 µM). Moreover, the “Weight Loss” value in “Weight loss screen” (day 1, printed with + sign) was 60 mg/kg: +1.8% (day 1). Also, the IC50 in assay [4] was found to be 26.7 ± 5.3 mg/L (≈ 72.1 µM).

`CCCCCCCCC1OC(=O)C(OC)=C1C(=O)OCC` (stereo not shown) [Compound 4] showed an IC50 in assay [4] of 25.3 ± 1.5 mg/L (≈ 84.8 µM).

As for `CCCCCCCCC1OC(=O)C(OC(=O)OCC)=C1C(=O)OCC` (stereo not shown) [Compound 7], the midpoint of inhibition in assay [4], the IC50, lay at 7.7 mg/L (≈ 21.6 µM).

Compound `C=CCOC1=C(C(=O)OCC)C(CCCCCCCC)OC1=O` (stereo not shown) [Compound 6] returned an IC50 in assay [4] of more than 80 mg/L.

The values are drawn from patent publication US20100029761A1, “NOVEL COMPOUNDS, PHARMACEUTICAL COMPOSITIONS CONTAINING SAME, AND METHODS OF USE FOR SAME” (priority 2005, published 2010).
